{
  "source": "patent US20120316203A1",
  "about": "“Compositions and Methods for Inhibition of Cancers” (THE OHIO STATE UNIVERSITY RESEARCH FOUNDATION, priority 2009, published 2012)",
  "key": {"[1]": {"system": "HSMC", "assay": "Intracellular ROS by DCF fluorescence, HSMC", "format": "cell-based, human", "conditions": "10 μM, 12 h", "experimental": "The ROS levels in cells treated with DAPs were determined using H2DCF-DA, a membrane-permeative fluorogenic probe. The acetate and acetoxymethyl ester groups of this probe are enzymatically cleaved inside living cells. The probe can then be oxidized by intracellular oxidants (ROS) to give a product, DCF, which emits a strong, green fluorescence (λex=504 nm; λem=529 nm). The fluorescence intensity is proportional to the level of cellular oxidants. […] The cells were further incubated in the dark for 20 min and washed with protein-free medium, and then fluorescence images were immediately captured with a Nikon Eclipse TE2000-U camera system using excitation/emission at 495/520 nm. The captured images were then analyzed using MetaMorph image analysis software."}, "[2]": {"system": "A2780R, SKOV3, OV4, and OVCAR3 cells", "assay": "Western blot of apoptosis and JAK/STAT3 in four additional ovarian cancer cell lines", "format": "cell-based, human", "conditions": "10 μmol/L, 24 hours, all four cell lines", "experimental": "Cells in RPMI 1640 were treated with DMSO (control) or HO-3867 (10 μmol/L) for 24 hours. Equal volumes of DMSO (0.1% v/v) were present in each treatment. Following treatment, the cell lysates were prepared in non-denaturing lysis buffer containing 10 mmol/L Tris-HCl (pH 7.4), 150 mmol/L NaCl, 1% Triton X-100, 1 mmol/L EDTA, 1 mmol/L EGTA, 0.3 mmol/L phenylmethyl-sulfonyl fluoride, 0.2 mmol/L sodium orthovanadate, 0.5% NP40, 1 μg/mL aprotinin, and 1 μg/mL leupetin. The lysates were centrifuged at 10,000×g for 20 minutes at 4° C. and the supernatant was separated. The protein concentration in the lysates was determined using a Pierce detergent-compatible protein assay kit. For Western blotting, 25 to 50 μg of protein lysate per sample were denatured in 2×SDS-PAGE sample buffer and subjected to SDS-PAGE on a 10% tris-glycine gel. The separated proteins were transferred to a polyvinylidene fluoride membrane and were blocked with 5% nonfat milk powder (w/v) in TBST (10 mmol/L Tris, 10 mmol/L NaCl, 0.1% Tween 20) for 1 hour at room temperature or overnight at 4° C. […] The bound antibodies were detected with horseradish peroxidase-labeled sheep anti-mouse IgG or horseradish peroxidase-labeled donkey anti-rabbit IgG using an enhanced chemiluminescence detection system (ECL Advanced kit). Protein expressions were determined using the Image Gauge v. […]"}, "[3]": {"system": "A2780 and other cancer cells", "assay": "Metabolic conversion to nitroxide in cancer cells (EPR)", "format": "in vitro ADME, human", "description": "The N-hydroxypyrroline (—NOH) moiety is capable of undergoing a reversible one-electron oxidation to its nitroxide form (—NO; FIG. 9A), which is paramagnetic and detectable by EPR spectroscopy."}, "[4]": {"system": "caspase-8, caspase-7, cleaved caspase-3, PARP, Fas/CD95, Fas-L, TNF-R1 in A2780 cells", "assay": "Immunoblot of apoptotic marker proteins and death receptors", "format": "cell-based, human", "experimental": "Cells in RPMI 1640 were treated with DMSO (control) or HO-3867 (10 μmol/L) for 24 hours. Equal volumes of DMSO (0.1% v/v) were present in each treatment. Following treatment, the cell lysates were prepared in non-denaturing lysis buffer containing 10 mmol/L Tris-HCl (pH 7.4), 150 mmol/L NaCl, 1% Triton X-100, 1 mmol/L EDTA, 1 mmol/L EGTA, 0.3 mmol/L phenylmethyl-sulfonyl fluoride, 0.2 mmol/L sodium orthovanadate, 0.5% NP40, 1 μg/mL aprotinin, and 1 μg/mL leupetin. The lysates were centrifuged at 10,000×g for 20 minutes at 4° C. and the supernatant was separated. The protein concentration in the lysates was determined using a Pierce detergent-compatible protein assay kit. For Western blotting, 25 to 50 μg of protein lysate per sample were denatured in 2×SDS-PAGE sample buffer and subjected to SDS-PAGE on a 10% tris-glycine gel. The separated proteins were transferred to a polyvinylidene fluoride membrane and were blocked with 5% nonfat milk powder (w/v) in TBST (10 mmol/L Tris, 10 mmol/L NaCl, 0.1% Tween 20) for 1 hour at room temperature or overnight at 4° C. The membranes were then incubated with the primary antibodies. The bound antibodies were detected with horseradish peroxidase-labeled sheep anti-mouse IgG or horseradish peroxidase-labeled donkey anti-rabbit IgG using an enhanced chemiluminescence detection system (ECL Advanced kit). Protein expressions were determined using the Image Gauge v. 3.45 software."}, "[5]": {"target": "T1, FAS in A2780 and SKOV3 cells (Homo sapiens, UniProt P49327)", "T1 construct": "endogenous in cells; host or cells: A2780 and SKOV3 human ovarian cancer cells", "T1 sequence (P49327 whole entry)": "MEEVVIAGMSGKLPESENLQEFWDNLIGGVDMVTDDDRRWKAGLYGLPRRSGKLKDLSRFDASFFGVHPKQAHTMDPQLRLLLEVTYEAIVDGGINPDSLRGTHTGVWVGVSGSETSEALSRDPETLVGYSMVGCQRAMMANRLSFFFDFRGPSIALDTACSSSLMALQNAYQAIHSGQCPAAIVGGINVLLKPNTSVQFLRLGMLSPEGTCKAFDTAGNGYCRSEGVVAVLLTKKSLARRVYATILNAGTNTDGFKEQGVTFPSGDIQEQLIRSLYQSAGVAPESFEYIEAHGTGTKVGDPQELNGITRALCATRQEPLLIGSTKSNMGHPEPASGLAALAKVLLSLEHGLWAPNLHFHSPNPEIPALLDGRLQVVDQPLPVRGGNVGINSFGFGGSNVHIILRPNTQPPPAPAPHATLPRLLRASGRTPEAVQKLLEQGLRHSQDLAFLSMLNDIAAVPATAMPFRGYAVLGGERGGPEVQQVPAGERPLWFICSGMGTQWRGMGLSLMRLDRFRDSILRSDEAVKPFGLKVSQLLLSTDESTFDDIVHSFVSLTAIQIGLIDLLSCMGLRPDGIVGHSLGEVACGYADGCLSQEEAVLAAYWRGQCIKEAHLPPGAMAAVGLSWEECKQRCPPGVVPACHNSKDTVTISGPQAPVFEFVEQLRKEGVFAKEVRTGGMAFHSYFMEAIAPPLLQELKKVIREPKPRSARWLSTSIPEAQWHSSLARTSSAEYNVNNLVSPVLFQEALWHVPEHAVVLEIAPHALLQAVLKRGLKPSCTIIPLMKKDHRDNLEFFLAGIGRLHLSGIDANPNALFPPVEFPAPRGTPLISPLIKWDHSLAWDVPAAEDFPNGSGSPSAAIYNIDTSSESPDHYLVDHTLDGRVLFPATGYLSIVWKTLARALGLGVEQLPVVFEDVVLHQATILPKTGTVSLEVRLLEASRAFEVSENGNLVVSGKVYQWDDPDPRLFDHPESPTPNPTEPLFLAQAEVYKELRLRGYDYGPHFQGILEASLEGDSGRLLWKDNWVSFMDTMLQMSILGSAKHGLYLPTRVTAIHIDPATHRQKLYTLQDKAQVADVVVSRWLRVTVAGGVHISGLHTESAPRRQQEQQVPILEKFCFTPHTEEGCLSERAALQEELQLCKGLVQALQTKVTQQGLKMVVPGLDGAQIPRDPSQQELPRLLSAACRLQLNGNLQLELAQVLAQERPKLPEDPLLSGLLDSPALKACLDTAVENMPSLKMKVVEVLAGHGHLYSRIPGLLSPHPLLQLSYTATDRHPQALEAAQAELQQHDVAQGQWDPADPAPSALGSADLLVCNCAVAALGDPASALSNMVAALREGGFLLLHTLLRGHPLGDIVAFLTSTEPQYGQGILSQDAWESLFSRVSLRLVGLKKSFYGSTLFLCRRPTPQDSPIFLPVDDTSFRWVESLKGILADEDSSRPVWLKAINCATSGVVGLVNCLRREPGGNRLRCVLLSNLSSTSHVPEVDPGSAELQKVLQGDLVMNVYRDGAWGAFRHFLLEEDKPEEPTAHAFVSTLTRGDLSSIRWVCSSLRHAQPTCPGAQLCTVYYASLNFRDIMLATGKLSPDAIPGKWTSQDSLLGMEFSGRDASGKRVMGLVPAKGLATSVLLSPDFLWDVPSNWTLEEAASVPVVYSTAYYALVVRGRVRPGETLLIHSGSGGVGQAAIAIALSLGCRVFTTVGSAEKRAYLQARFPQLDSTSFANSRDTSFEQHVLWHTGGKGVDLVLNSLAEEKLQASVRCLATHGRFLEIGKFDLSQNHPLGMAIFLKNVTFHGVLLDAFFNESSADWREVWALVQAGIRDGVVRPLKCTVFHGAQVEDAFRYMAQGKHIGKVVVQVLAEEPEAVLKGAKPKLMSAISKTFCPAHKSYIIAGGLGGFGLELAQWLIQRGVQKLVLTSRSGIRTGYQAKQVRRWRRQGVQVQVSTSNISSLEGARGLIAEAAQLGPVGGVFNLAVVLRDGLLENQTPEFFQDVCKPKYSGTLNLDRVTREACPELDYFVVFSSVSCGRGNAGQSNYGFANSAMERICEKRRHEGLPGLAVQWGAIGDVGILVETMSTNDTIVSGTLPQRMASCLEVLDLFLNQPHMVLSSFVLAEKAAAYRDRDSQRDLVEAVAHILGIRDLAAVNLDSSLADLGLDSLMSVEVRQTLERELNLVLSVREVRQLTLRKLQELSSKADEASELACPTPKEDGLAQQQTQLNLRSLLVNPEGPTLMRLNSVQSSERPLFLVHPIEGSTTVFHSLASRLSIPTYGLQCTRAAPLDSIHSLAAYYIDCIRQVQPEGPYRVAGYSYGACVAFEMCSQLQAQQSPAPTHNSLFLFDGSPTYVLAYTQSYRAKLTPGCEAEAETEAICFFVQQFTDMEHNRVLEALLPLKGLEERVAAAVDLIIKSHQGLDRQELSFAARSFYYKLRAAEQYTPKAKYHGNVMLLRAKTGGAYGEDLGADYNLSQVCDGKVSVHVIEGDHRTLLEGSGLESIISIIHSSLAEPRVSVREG", "assay": "Fatty acid synthase activity assay", "format": "cell-based", "conditions": "10 μM, 12 or 24 h, both cell lines", "experimental": "The FAS activity was determined spectrophotometrically at 37° C. in particle-free supernatants by measuring the decrease of absorption at 340 nm due to oxidation of NADPH."}, "[6]": {"system": "FAS and FAK in A2780 and SKOV3 cells", "assay": "FAS and FAK protein and mRNA expression in ovarian cancer cells", "format": "cell-based, human", "conditions": "10 μM", "experimental": "Cells in RPMI 1640 medium were treated with DMSO (control) or HO-3867 (10 μM) for 24 h. Equal volumes of DMSO (0.1% v/v) were present in each treatment. Following treatment, the cell lysates were prepared in nondenaturing lysis buffer containing 10-mM Tris-HCl (pH 7.4), 150-mM NaCl, 1% Triton X-100, 1-mM EDTA, 1-mM EGTA, 0.3-mM phenylmethylsulfonyl fluoride, 0.2-mM sodium orthovanadate, 0.5% NP40, 1-μg/ml aprotinin, and 1-μg/ml leupetin. The lysates were centrifuged at 10,000×g for 20 min at 4° C., and the supernatant was separated. The protein concentration in the lysates was determined using a Pierce detergent-compatible protein assay kit. For Western blotting, 25 to 50 μg of protein lysate per sample was denatured in 2×SDS-PAGE sample buffer and subjected to SDS-PAGE on a 10% tris-glycine gel. […] The bound antibodies were detected with horseradish peroxidase (HRP)-labeled sheep anti-mouse IgG or HRP-labeled donkey anti-rabbit IgG using an enhanced chemiluminescence detection system (ECL Advanced kit). Protein expressions were determined using Image Gauge version 3.45.\nTotal RNA isolated from ovarian tumor tissue was prepared with TRIzol (Life Technologies, Grand Island, N.Y.) according to the manufacturer's instructions. RNA quantification was done using spectrophotometry. […]"}},
  "data": [
    {"smiles": "CC1(C)C=C(CN2C/C(=C\\c3ccc(F)cc3)C(=O)/C(=C/c3ccc(F)cc3)C2)C(C)(C)N1O", "note": "[HO-3867, 1-[(1-oxyl-2,2,5,5-tetramethyl-2,5-dihydro-1H-pyrrol-3-yl)methyl]-(3E,5E)-3,5-bis(4-fluorobenzylidene)piperidin-4-one]", "values": [
      {"measurement": "amounts of ROS in HSMC compared to A2780 cells", "setting": "[1]", "value": "significantly lower amounts of ROS"},
      {"measurement": "intracellular ROS generation (DCF fluorescence) in HSMC", "setting": "[1]", "value": "not significantly different from that of the untreated cells"},
      {"measurement": "caspase-3 and PARP cleavage", "setting": "[2]", "value": "clearly showed caspase-3 and PARP cleavage"},
      {"measurement": "expression levels of pSTAT3 and JAK1", "setting": "[2]", "value": "decrease"},
      {"measurement": "EPR signal intensity of the nitroxide metabolite in A2780 cells compared to PBS", "setting": "[3]", "value": "fivefold increase"},
      {"measurement": "EPR spectrum (nitroxide signal) after incubation with A2780 cells", "setting": "[3]; 37° C., EPR", "value": "characteristic triplet feature"},
      {"measurement": "level of activated caspases (caspase-8, caspase-7, cleaved caspase-3) and PARP", "setting": "[4]; 24 hours, versus nontreated cells", "value": "significant increase"},
      {"measurement": "Fas-L level", "setting": "[4]; data not shown", "value": "no significant change"},
      {"measurement": "expression level of TNF-R1", "setting": "[4]; data not shown", "value": "unchanged"},
      {"measurement": "Fas/CD95 expression", "setting": "[4]; versus nontreated group", "value": "clear increase"},
      {"measurement": "FAS activity", "setting": "[5]", "value": "significantly reduced"},
      {"measurement": "FAS and FAK, protein and expression levels", "setting": "[6]", "value": "incubation-time-dependent inhibition"}
    ]}
  ]
}
